Reference: patent publication US11584709B2, “Multitarget drug for treating diseases in mammals” (“PHARMENTERPRISES EURASIA” LIMITED LIABILITY COMPANY, priority 2017, dated 2023)

Tested on: NF-kB signaling pathway
Experiment: Activity of NF-kB signaling pathway, Jurkat lacZ reporter
Format: cell-based
Settings: Homo sapiens; inhibitor; Jurkat T lymphocytes, β-galactosidase reporter, substrate FDG

For O=C(Cc1ccc(O)cc1)N[C@@H](Cc1ccccc1)C(=O)OCc1ccccc1 [Compound 1, benzyl (2S)-2-[2-(4-hydroxyphenyl)acetamido]-3-phenylpropanoate], the IC50 was 9.9 µM.
